We go through 1 compound from patent publication US20100137344A1, “INDUCTION OF ANALGESIA IN NEUROPATHIC PAIN” (University Court of the University of Edinburgh, priority 2006, published 2010).

One assay deals with dorsal horn neurons. The experiment in a line: Extracellular recordings of single spinal dorsal horn neurons in CCI animals (brush-evoked firing). Type of assay: in vivo, rat. Particulars: icilin 200 μM topical. As for the experimental part: Peripheral: Recordings of saphenous (sensory) nerve were made in naïve animals (n=7) to assess the effects of topical icilin on primary afferents. In addition, recordings were carried out on animals which had undergone TRPM8 antisense or mis-sense treatment beginning 4-5 days previously. Rats were anaesthetised (with 0.6 ml 25% urethane/100 g, i.p.) and the saphenous nerve was exposed and dissected from its associated vein and artery. Further dissection under liquid paraffin enabled identification of afferent preparations comprising a small number of fibres. The conduction velocity of single identified afferent fibres was determined using bipolar electrodes and the peripheral stimulus technique^[43]. Following isolation of preparations, icilin (200 μM in water with 0.2% DMF), (−)-menthol (4 mM in 25% ethanol) resiniferatoxin (1 mM in ethanol) or vehicle alone were applied to the hindlimb receptive fields and neuronal responses recorded using the Chart programme (version 3.6). Central: Recordings of spinal dorsal horn neurons were made in CCI animals, as described previously^[39]. Following halothane induction, the jugular vein and trachea were canulated and intravenous anaesthetic delivered: α-chloralose ([…], Fisher) and urethane ([…], Sigma), with small supplementary doses of α-chloralose as required throughout the experiment. Core body temperature was maintained at 37-38° C. by means of a thermostatically controlled heated blanket. The animal was placed in a stereotaxic frame, and the thoracolumbar spinal column was supported using three pairs of swan-necked clamps. A laminectomy was performed at L2-L5, and agar (2% in saline at 37° C.) was delivered over exposed cord to increase mechanical stability. Above the recording region the agar and spinal cord dura were removed and liquid paraffin poured into the pool. Extracellular recordings were made from single multireceptive neurons in laminae I-IV through the centre barrel of a seven-barrelled glass microelectrode filled with 4M NaCl (tip-diameter […], DC resistance 5-8 MΩ). The receptive fields of hair-follicle innervated neurons on the distal hindlimb were identified by an innocuous brush stimulus^[39]. Icilin (200 μM in water with 0.2% DMF) was applied peripherally to the receptive field of individual recorded neurons, and the effect on neuronal response to a rotating brush was recorded and analysed using Spike2 programme (Version 3.2, CED). The Group III mGluR antagonist UBP 1112 (20 mM in water), pH 8.5, and control 1M NaCl, pH 8.5 were ionophoresed from the side barrels of the electrode using currents of between 20 nA and 80 nA (Neurophore BH2 ionophoresis system, Medical Systems, Great Neck, N.Y.) to measure effects on neuronal response to icilin.

Assay [1] concerns rats with lysolecithin-induced demyelination of sciatic nerve. The experiment in a line: Intrathecal icilin in lysolecithin demyelination-induced pain model (PWL, PWT). Type of assay: in vivo, rat. Particulars: icilin 10 nmol, i.t. The protocol:
Pain models were generated under halothane anaesthesia (Zeneca, Cheshire, UK). For the chronic constriction injury (CCI) model of neuropathic pain, four ligatures were tied loosely to constrict the sciatic nerve at mid-thigh level (as described previously^[39]). An inflammatory pain model was generated by injecting 100 μl of Complete Freund's Adjuvant (CFA, Sigma-Aldrich Ltd) into the ventral surface of the right hindpaw^[39]. A model of peripheral demyelination-induced pain was produced by focal application of lysolecithin to the sciatic nerve^[40]. Peak behavioural sensitisation was observed post-surgically between days 10-16 for CCI, 1-3 for CFA, and 7-14 for lysolecithin, when pharmacological and electrophysiological experiments and tissue removal were conducted.
Thermal sensitivity was assessed by measuring paw withdrawal latency (PWL, s) in response to a noxious thermal stimulus (Hargreaves' thermal stimulator, Linton Instrumentation, Diss, UK) directed to the hindpaw mid-plantar glabrous surface. Mechanical sensitivity was recorded as the paw withdrawal threshold (PWT, mN/mm^2) to calibrated von Frey filaments (Stoelting, Ill., US), as previously described^[39]. Sensitivity to noxious cold was assessed by placing animals in a waterbath with an aluminium floor containing 1 cm deep 4° C. water and counting the time the paw was held suspended over a 20 s period.
The following drugs were applied intrathecally in a 50 μl volume of saline-based vehicle at 37° C.: icilin (2.5-200 μM in saline with 0.2% dimethylformamide, DMF), LY 341495 (100 μM in saline), UBP 1112 (200 μM in saline), 2R,4R-APDC ((2R, 4R)-4-aminopyrrolidine-2,4-dicarboxylate), 300 μM in saline), ACPT-III ((1R,3R,4S)-1-aminocyclopentane-1,3,4-tricarboxylic acid), 3 mM in saline), AP-4, ((L-(1)-2-amino-4-phosphonobutyric acid), 3 mM in saline), naloxone (0.5 mM in saline), NMDA (75 μM in saline) and ACPC (1-aminocyclopropanecarboxylic acid, 15 μM in saline) (Tocris Cookson, Bristol, UK), (−)-menthol (1R,2S,5R-(−)-menthol, 4 mM in saline), cinnamaldehyde (1.5 mM in saline) and Ruthenium Red (5 μM in saline) (Sigma-Aldrich Co. Ltd, UK) and allicin (0.5 mM in saline with 0.5% DMF) and diallyl disulphide (DADS, 1 mM in saline with 0.5% DMF) (LKT Laboratories Inc., St Paul, Minn., USA). […] Behavioural reflex testing commenced 15 min following injection to allow recovery from anaesthesia^[40,41,42] and continued every 5 min thereafter until readings returned to baseline levels (n=6 in each case). […]
The TRPM8 channel activators, icilin and (−)-menthol were tested in CCI and naïve animals. The effects of icilin were additionally assessed in animals with CFA-induced inflammation or with lysolecithin-induced demyelination. […]

Turning to `O=C1NC(c2cccc([N+](=O)[O-])c2)=CCN1c1ccccc1O` [icilin, 1-(2′-hydroxyphenyl)-4-(3″-nitrophenyl)-1,2,3,6-tetrahydropyrimidin-2-one], the “brush-induced responses of contralateral neurons” value with dorsal horn neurons (contralateral, n=6) is given as 111.9±8.9 % of control. Further, the brush-induced responses in the assay with dorsal horn neurons (ipsilateral to CCI, 8 neurons out of 12 affected) is given as 37.4±5.5%. In assay [1], the “Mean % reversal of mechanical sensitisation (after 15-30 mins)” value was 63.3 ± 6.4%, the “Mean % reversal of thermal sensitisation (after 15-30 mins)” value is reported as 69.2 ± 5.1%, the “PWL (s) difference from control (+ icilin)” value was 2.4 ± 1.2 s and the “PWT (mN/mm^2) difference from control (+ icilin)” value came out at 1102.5 ± 422.5 mN/mm^2.
